# In patent US20030003440A1, “Novel CCR5 epitope and antibodies against it” (priority 2001, published 2003):
# Experiments:
# [1] = tested on: anti-CCR5 Abs; test: Epitope mapping of anti-CCR5 Abs on peptide/beads, assayed in the Mip1β binding inhibition assay; set-up: species or system human; settings: for Binding of anti-CCR5 Abs to peptide: Abs from ESN sera bound to peptide/beads, eluted, tested in Mip1β binding inhibition assay, FIG. 1
# Experimental: Coupling of CCR5 peptides to tosyl-activated Dynabeads M280 (Dynal, Oslo, Norway) was obtained following standard procedures. Briefly, 3×10^7 beads were incubated with 9 μg of CCR5 peptides in 50 mM borate buffer pH 9,5 (16 h at 37° C.). After 4 washes in PBS, peptide/beads were ready for use.
# Binding of anti-CCR5 specific Igs to peptide/beads was obtained by incubating 9 μg Ig's to 9 μg peptide/beads for 1 h at 4° C. Ig's were eluted in 0.5 M acetic acid, dialyzed against RPMI medium, then tested in Mip1β binding assays and/or in HIV neutralization assays. To establish if the region recognized by anti-CCR5 antibodies corresponds to a conformational epitope, the specific peptide/beads were incubated with 10 mM of βME, and subsequently with 300 mM of N-Ethyl Maleimide (final concentration: 30 mM) for 60 min prior to antibody binding.
# The assay was performed as described (Trkola, A. et al., 1996, Nature 384:184). Briefly, 10^6 purified CD4^+ cells in 200 μl of RPMI (Gibco-Life Technologies, Milan, Italy)(containing 0.05 M NaN3, 1% BSA and 25 mM HEPES) were incubated with appropriate dilutions of affinity-purified anti-CCR5 Abs (Example 1); after 45 min of incubation ^125I-Mip1β (Dupont-NEN, Mechelem, Belgium) was added (final concentration 0.1 nM, 0.2 μCi), and the cells were further incubated for 2 h on ice. Unbound radioactivity was separated by centrifugation on a two-step gradient (Grassi, F. et al., 1991, J. Exp. Med. 174:53) in 0.3 ml tubes (Nunc, Roskilde, Denmark) as follows: the lower layer consisted of fetal calf serum (FCS) containing 10% sucrose; the upper layer consisted of 80% silicone (Sigma-Aldrich) and 20% mineral oil (Sigma-Aldrich). The bound radioactivity in the cell pellets was measured in a gamma counter. Serum samples were diluted 1:10 (5 replicas for each sample). A specificity control consisting of a 100-fold excess of unlabeled Mip1β was included in all experiments. The binding of the ^125I-Mip1β to activated CD4^+ cells ranged between 1000 and 6000 CPM. The cut-off value was set at 12% (3 SD above the mean value of the 45 USN serum samples).
# [2] = target: T1, peptide 3 from CCR5 (Homo sapiens, UniProt P51681); test: Immunization of mice with KLH-conjugated peptide; binding of mice sera to peptide 3 by ELISA; format: in vivo; settings: BALB/c mice, i.p. every 15 days, three immunizations, KLH conjugate 50 μg/dose; FIG. 3
# T1 construct: made in house; host or cells: chemical solid-phase synthesis
# Experimental: BALB/c mice were immunized i.p. every 15 days with peptide 3 or with an unrelated control peptide (VQGEESNDK); both peptides had previously been conjugated to KLH (50 μg/dose). Serum was monitored for the presence of antibodies against the immunogens. After three immunizations the mice were sacrificed and sera were tested in direct binding on pep 3.
# Binding of mice sera to peptide 3 was obtained by ELISA. Microwells plates were coated with Beads/pep 3 (10^7beads). The plates were satured for 1 h with PBS and 3% BSA. Different dilutions of mice antisera ( 1/10, 1/50, 1/250 and 1/1000) were added and incubated for 2 h at r.t. […] The enzimatic reaction was developed and read at 492 nm.
Substance,Binding of anti-CCR5 Abs to peptide [1],Binding on pep 3 of sera of immunized mice (ELISA) [2],Binding of anti-CCR5 Abs to peptide after reduction and alkylation ([1]; addition of 2-ME and N-ethyl maleimide)
CSSHFPYSQYQFWKNFQTLKc [compound 4],no binding,,
"FQEFFGLNNCSSSNR [compound 5, peptide of the extramembrane region of CCR5]",no binding,,
"VQGEESNDK [control peptide, unrelated control peptide conjugated to KLH, reference compound]",,no binding,
"YYTSEPCQKINVKQIAARLLP [compound 2, peptide of the extramembrane region of CCR5]",no binding,,
cMDYQVSSPIYDINYYTSEPC [compound 1],no binding,,
"cYAAAQWDFGNTMCQ (N-terminal Cys added; UniProt P51681 89-102, looked up, fragment) [peptide 3, second external domain of CCR5 (first cysteine loop, aa 89-102) with Cys added at the N-terminus]",Specific Ab binding,specific binding,abolished
